Measurements: patent US4737513A, “Novel pyrrole derivatives” (Roussel Uclaf, priority 1984, dated 1988)

Assays:
Type in all cases: in vivo
[1] = test system: house flies; test: Study of knock-down activity of house flies (direct atomization in a Kearns and March chamber); settings: concentration at 0.1 g/l; female house flies 4 days old; acetone (5%) and Isopar L
Description: (1) Study of knock-down activity of house flies
The test insects were female house flies 4 days old and the test was effected by direct atomization in a Kearns and March chamber using as solvent a mixture of acetone (5%) and Isopar L (petrol solvent) (quantity of solvent used, 2 ml in one second). 50 insects were used per treatment and checks were made every minute for 10 minutes, then at 15 minutes, and the KT50 was determined by the usual methods.

[2] = test system: cockroaches (Blatella germanica); test: Study of activity by tarsal contact on cockroaches; settings: male Blatella germanica; 1 hour on dried acetone deposit; mortality checked at 24 hours, 48 hours, 3 days and 5 days
Description: (2) Study of activity by tarsal contact on cockroaches
The insects tested were male cockroaches (Blatella germanica) and the test was carried out by depositing an acetone solution of a certain concentration on the bottom of a Petri dish 20 cm in diameter. After this had dried, 20 male cockroaches were allowed to stay there per concentration for 1 hour, after which they were transferred to a healthy medium and their mortality was checked at 24 hours, 48 hours, 3 days and 5 days. The result was expressed as lethal concentration 50 (LC 50) in mg/m^2.

[3] = test system: Aphis cracivora; test: Study of lethal effect on Aphis cracivora (contact-ingestion method); set-up: unit not given here; settings: adults 7 days old; 1 hour contact with treated bean leaf; mortality checked after 24 hours
Description: (3) Study of lethal effect on Aphis cracivora
Adults 7 days old were used with 10 aphis per concentration using a contact-ingestion method. The treatment was carried out with a Fisher gun on a bean leaf which was placed in a plastic Petri dish on a disc of moistened paper. 2 ml of an acetone solution of the product under test were used with 1 ml per face of the leaf and the insect infestation was carried out after drying the leaf. The insects were kept in contact with the leaf for 1 hour and then they were placed on untreated leaves.

[4] = test system: Tetranychus urticae; test: Activity on Tetranychus urticae, test of lethal effect on adults; settings: females on treated bean leaves; checked after 80 hours of contact
Description: (4) Activity on Tetranychus urticae, test of lethal effect on adults
Bean plants having two cotyledon leaves were used which were treated with a Fisher gun with an acetone solution of the product. After drying, 25 females of the acaridan Tetranychus urticae were placed on each leaf, that is 50 individuals per experimental dose per plant. The efficacity was checked after 80 hours of contact, and the LD 50 was indicated in mg/hl.

C#CCn1ccc(COC(=O)[C@@H]2[C@H](/C=C(\Cl)C(F)(F)F)C2(C)C)c1C#N [Example 43, [2-cyano-1-(2-propynyl)-1H-pyrrol-3-yl]-methyl (1R,cisΔZ) 2,2-dimethyl-3-[(2-chloro-3,3,3-trifluoro)-1-propenyl]-cyclopropane carboxylate]
KT 50 [1]: 2.9 min
lethal concentration 50 (LC 50) [2]: 2.8 mg/m^2
LD 50 [3]: 7.5
LD 50 [4]: 342 mg/hl

C#CCn1ccc(COC(=O)[C@@H]2[C@@H](C=C(Cl)C(F)(F)F)C2(C)C)c1C#N [Example 49, [1-(2-propynyl)-2-cyano-1H-pyrrol-3-yl]-methyl 1R, trans (E,1/3) (Z,2/3) 2,2-dimethyl-3-(2-chloro-2-trifluoromethylethenyl)-cyclopropane carboxylate]
KT 50 [1]: 11.0 min
LD 50 [3]: 6.5
